Assay results as given in US9168253B2, “Quinazoline compounds” (HUTCHISON MEDIPHARMA LIMITED, priority 2010, dated 2015).
Values belong to the compound of their own block, whether it stands above or below them.

Key:
EGFR = target: T1, EGFR (Homo sapiens, UniProt P00533); test: EGFR Activation-Inhibiting Test (DELFIA, EGF-stimulated A431 cells); format: cell-based; details: 60 min compound, EGF stimulation 45 min, read-out: IC50 (inhibition of EGF-stimulated EGFR activation)
T1 construct: endogenous in cells; host or cells: A431 (human epidermoid carcinoma)
Procedure: Cell seeding and starving: A431 (human epidermoid carcinoma) cells diluted in 10% […] containing DMEM are seeded at 1.3×10^4 cells/well in 96-well plates and incubated overnight. Then the cell culture medium is replaced with 90 μL/well serum-free DMEM medium. The plates are incubated overnight for starvation.
Compound dilution and treatment: the test compounds are diluted in a 3-fold series in FBS-free medium containing 5% DMSO. 10 μL/well of the diluted compound is added into cells, 10 μL/well of 5% DMSO without test compound is added into the control wells. Duplication study is performed for each test point. Then, the plates are incubated at 37° C. for 60 minutes in a 5% CO2 incubator. 10 μL/well of 200 ng/mL EGF (Biosource, PHG0064) is added and incubate the plates at 37° C. for 45 minutes in the 5% CO2 incubator.
Lysate preparation: the medium is removed, and 100 μL/well of 50 mM Tris-Cl, pH 8.0 cell lysis buffer (containing 0.5 M NaCl, 0.2 mM EDTA, 0.1% Triton X-100, 1 μg/mL aprotinin, 0.75 μg/mL leupeptin, 1 μg/mL pepstatin, 1 mM DTT, 500 μM sodium vanadate, and 1 mM PMSF) is added into each well to lyse cells. The protease inhibitors are added right before use. The cell lysate is frozen at −80° C. overnight.
Plate coating and blocking: 100 μL/well of 0.5 μg/ml anti-EGFR antibody (Perkin Elmer, AF231) diluted in PBS is added to a 96-well DELFIA plate (Perkin Elmer, AAAND-0001) and incubated at 25° C. overnight with gentle shaking. The solution is discarded. The plate is washed 3 times with 200 μL/well of DELFIA wash buffer (PBS buffer containing 0.05% Tween-20). 200 μL/well of blocking buffer (PBS containing 0.137 M of NaCl, 0.0027 M of KCl, 0.01 M of Na2PO4.12H2O, 0.0015 M of KH2PO4, pH7.4, and 1% BSA) is added into each well and the plate is incubated at 25° C. for 2 h with gentle shaking.
Binding: the blocking buffer is discarded and the plate is washed with 200 μL/well of DELFIA wash buffer 3 times. 80 μL/well of the sample diluent (20 mM Tris-Cl/pH7.3, 150 mM NaCl, 0.1% of BSA, and 0.05% Tween-20) and 20 μL/well of cell lysate are then added to each well. Incubate the plate at 25° C. for additional 1 h with gentle shaking.
Detection: The plate is washed again with 200 μL/well of DELFIA wash buffer for 3 times. 100 μL/well of […] Eu-PT66 antibody (Perkin Elmer, AD0040) diluted in DELFIA assay buffer (Perkin Elmer, 1244-106) is added and incubate the plate at 25° C. for 1 h with gentle shaking. After washing with 200 μL/well of DELFIA wash buffer 3 times, 100 μL/well of DELFIA enhancement buffer (Perkin Elmer, 4001-0010) is added. Incubate the plate at 25° C. for 30 min with gentle shaking.
Readout: fluorescence signal is measured at 340 nm excitation and 620 nm emission on Victor^3 (PerkinElmer).
Inhibition rates are calculated as follow:
[Fluorescence Readout]Treated is the readout of the wells treated with test compound upon EGF stimulation
[Fluorescence Readout]Untreated is the readout of the wells with neither compound treatment nor EGF stimulation, which is used as cell background signal
[Fluorescence Readout]EGF is the readout of wells with EGF stimulation, but no compound treatment, which is used as maximal signal
IC50 is calculated using XL-Fit 2.0 software.

[1] = test system: Fadu (human head and neck, pharynx carcinoma) xenograft; test: In vivo anti-tumor test, FaDu subcutaneous xenograft; details: FaDu xenograft in nude mice
Procedure: (§1) Human tumor cell lines: Fadu (human head and neck, pharynx carcinoma, HTB-43), HCC827 (human non small cell lung cancer, NSCLC; CRL-2868), A431 (human epidermoid carcinoma, CRL-2592) cell lines were purchased from ATCC; Fadu, HCC827 and A431 cells were grown in EMEM, RPMI 1640 and DMEM medium plus 10% FBS respectively. These cells were incubated in a humidifier incubator at 37° C. and under 5% CO2.
(§2) Animals: Athymic mice (6-8 weeks) were purchased from Shanghai SLAC laboratory animal CO. LTD. The animals were housed in the SPF environment, 4 animals/cage under standard conditions (12:12 h light/dark, 40-50% relative humidity at 20-25° C.) and were given free access to Co^60 radiated-sterile diet and sterile water.
(§3) Agents: Test compounds were formulated in sterile 0.5% CMC-Na at different concentrations (0.05˜1.0 mg/mL), and then stored at 4° C.
(§4) Subcutaneous implantation of tumor cells and anti-tumor efficacy study: The tumor cells were incubated at 37° C. in a 5% CO2 incubator until they reached approximately 80% confluence. Cells were detached by 0.05% Trypsin-EDTA, centrifuged at 800 rpm, and the cells were suspended in serum free medium. The concentration was adjusted for nude mice implantation. The nude mice were quarantined for several days before implantation, and 3×10^6 FaDu or A431 cells in 0.1 mL medium, or 5×10^6 HCC827 cells in the 0.2 mL medium were subcutaneously injected to the right lateral flank of nude mice.
(§5) One to three weeks after inoculation, when average tumor volume reached 100-300 mm^3, the animals were randomized and divided into vehicle and compound treated groups. The mice were orally administrated with either the vehicle, 0.5% CMC-Na, or the test compounds at different dose levels once a day. Tumor volume was measured 2-3 times per week by caliper for length and width, and was calculated using the formula: Tumor volume (TV, mm^3)=width^2×length/2. Animal body weight and behavior were observed during the experiment. […]
(§6) Tumor volume data were expressed as Mean±SD. […]

[2] = test system: HCC827 (human non small cell lung cancer, NSCLC) xenograft; test: In vivo anti-tumor test, HCC827 subcutaneous xenograft; details: HCC827 xenograft in nude mice
Procedure: as §1, §2, §3, §4
One to three weeks after inoculation, when average tumor volume reached 100-300 mm^3, the animals were randomized and divided into vehicle and compound treated groups. The mice were orally administrated with either the vehicle, 0.5% CMC-Na, or the test compounds at different dose levels once a day. Tumor volume was measured 2-3 times per week by caliper for length and width, and was calculated using the formula: Tumor volume (TV, mm^3)=width^2×length/2. Animal body weight and behavior were observed during the experiment. Tumor growth inhibition was calculated as follows: TGI (%)=100−(T−T0)/(C−C0)×100%, where T represents mean tumor volume of a treated group on a specific day during the experiment, T0 represents mean tumor volume of the same treated group on the first day of treatment, C represents mean tumor volume of a control group on the specific day during the experiment, and C0 represents mean tumor volume of the same control group on the first day of treatment.
Tumor volume data were expressed as Mean±SD. One-way ANOVA was used for multiple comparisons and Student's t-test was used for comparison with vehicle control. Differences were considered statistically significant at P<0.05.

[3] = test system: A431 (human epidermoid carcinoma) xenograft; test: In vivo anti-tumor test, A431 subcutaneous xenograft; details: A431 xenograft in nude mice
Procedure: as §1, §2, §3, §4, §5, §6

hERG channels = target: T2, hERG channels (Homo sapiens, UniProt Q12809); test: hERG assay, manual whole-cell patch clamp; format: cell-based; details: CHO cells expressing hERG, five concentrations, read-out: IC50 for inhibition of hERG tail currents
T2 construct: expressed in transfected cells; host or cells: CHO
Procedure: A CHO cell line stably transfected with hERG cDNA and expressing hERG channels was used for the study. Cells were cultured in medium containing:
For the electrophysiological recordings the following solutions were used
Whole-cell recordings were performed using a EPC10 USB(HEKA). The cells were voltage clamped at a holding potential of −80 mV. The hERG current was activated by depolarizing at +20 mV for 2 sec, after which the current was taken back to −50 mV for 2 sec to remove the inactivation and observe the deactivating tail current. The first step at −50 mV was used as a baseline for measuring the tail current peak amplitude.
Compounds were prepared as a 10 mM DMSO stock in a glass vial. The stock solution was mixed vigorously for 10 minute at room temperature. For testing, the compound was diluted in a glass vial using solution; the dilution was prepared no longer than 30 minutes before use. Equal amounts of DMSO (0.1%) were present at final dilution.
After achieving whole-cell configuration, the cells were monitored for 90 sec to assess stability and washed with external solution for 66 sec. The voltage protocol described above was then applied to the cells every 20 sec throughout the whole procedure. Only stable cells with recording parameters above threshold were allowed to enter the drug addition procedure. […]
Data were analyzed using Pulsefit and Origin 7 (Originlab Corporation).

T1 sequence (P00533 25-1210): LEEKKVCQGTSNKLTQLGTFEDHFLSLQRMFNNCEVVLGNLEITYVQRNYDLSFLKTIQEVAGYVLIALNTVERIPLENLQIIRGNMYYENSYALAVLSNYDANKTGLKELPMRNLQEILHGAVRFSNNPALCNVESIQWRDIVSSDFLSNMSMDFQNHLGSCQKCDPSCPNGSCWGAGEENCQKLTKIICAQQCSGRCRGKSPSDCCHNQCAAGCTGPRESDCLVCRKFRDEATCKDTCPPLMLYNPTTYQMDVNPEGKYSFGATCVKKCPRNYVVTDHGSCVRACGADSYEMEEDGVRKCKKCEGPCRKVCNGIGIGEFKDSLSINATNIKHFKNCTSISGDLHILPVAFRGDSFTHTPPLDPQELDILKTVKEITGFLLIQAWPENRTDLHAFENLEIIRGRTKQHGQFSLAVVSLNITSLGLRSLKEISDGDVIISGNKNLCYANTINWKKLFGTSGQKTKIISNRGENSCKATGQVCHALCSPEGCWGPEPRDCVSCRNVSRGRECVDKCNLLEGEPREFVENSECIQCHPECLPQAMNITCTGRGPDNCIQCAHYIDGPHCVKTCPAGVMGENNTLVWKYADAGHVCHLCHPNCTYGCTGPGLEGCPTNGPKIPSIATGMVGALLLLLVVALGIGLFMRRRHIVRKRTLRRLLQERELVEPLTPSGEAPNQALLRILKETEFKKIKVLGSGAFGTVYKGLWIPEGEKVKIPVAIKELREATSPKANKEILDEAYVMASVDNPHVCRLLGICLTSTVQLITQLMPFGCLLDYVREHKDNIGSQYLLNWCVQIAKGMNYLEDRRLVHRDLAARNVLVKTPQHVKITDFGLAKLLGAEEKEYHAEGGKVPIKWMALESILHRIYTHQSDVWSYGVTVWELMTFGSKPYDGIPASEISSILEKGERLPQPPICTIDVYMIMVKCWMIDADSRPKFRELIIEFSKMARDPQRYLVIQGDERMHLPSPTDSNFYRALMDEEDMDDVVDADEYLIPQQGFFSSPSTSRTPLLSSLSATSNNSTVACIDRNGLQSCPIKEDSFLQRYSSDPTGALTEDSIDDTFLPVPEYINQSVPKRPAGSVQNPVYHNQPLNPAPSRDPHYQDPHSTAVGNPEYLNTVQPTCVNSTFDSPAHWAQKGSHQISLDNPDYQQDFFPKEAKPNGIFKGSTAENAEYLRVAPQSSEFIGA
T2 sequence (Q12809 whole entry): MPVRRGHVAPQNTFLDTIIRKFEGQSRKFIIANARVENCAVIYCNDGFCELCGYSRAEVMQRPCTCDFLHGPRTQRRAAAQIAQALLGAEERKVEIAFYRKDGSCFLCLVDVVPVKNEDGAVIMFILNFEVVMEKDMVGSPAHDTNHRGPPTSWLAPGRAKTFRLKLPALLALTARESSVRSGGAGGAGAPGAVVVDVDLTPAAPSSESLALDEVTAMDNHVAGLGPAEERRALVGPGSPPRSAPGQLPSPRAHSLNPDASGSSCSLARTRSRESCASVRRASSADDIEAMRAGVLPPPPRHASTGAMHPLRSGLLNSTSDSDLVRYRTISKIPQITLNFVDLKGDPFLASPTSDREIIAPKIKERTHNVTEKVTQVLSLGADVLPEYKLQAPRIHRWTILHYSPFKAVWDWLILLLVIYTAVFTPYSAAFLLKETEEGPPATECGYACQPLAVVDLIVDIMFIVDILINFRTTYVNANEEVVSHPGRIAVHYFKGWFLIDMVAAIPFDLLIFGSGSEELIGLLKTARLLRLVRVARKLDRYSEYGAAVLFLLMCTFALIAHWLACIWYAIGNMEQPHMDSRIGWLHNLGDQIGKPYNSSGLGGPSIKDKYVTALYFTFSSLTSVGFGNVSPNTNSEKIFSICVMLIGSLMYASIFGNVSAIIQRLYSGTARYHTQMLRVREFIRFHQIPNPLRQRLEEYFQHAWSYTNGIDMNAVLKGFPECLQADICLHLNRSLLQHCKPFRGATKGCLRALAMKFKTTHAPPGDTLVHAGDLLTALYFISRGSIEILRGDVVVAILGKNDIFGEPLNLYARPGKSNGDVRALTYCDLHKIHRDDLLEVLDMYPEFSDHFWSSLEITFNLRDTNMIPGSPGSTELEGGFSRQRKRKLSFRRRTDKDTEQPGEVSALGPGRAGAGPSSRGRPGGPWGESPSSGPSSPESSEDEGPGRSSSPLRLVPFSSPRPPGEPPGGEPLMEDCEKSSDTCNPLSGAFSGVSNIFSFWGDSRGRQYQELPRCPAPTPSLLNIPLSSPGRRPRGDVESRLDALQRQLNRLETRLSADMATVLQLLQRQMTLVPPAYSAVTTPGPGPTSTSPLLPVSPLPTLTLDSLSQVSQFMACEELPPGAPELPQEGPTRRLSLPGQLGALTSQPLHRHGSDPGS

IC50 (EGFR): 185 nM
Structure (SMILES): COc1cc2ncnc(Nc3ccc4c(cnn4Cc4cccc(F)c4)c3)c2cc1NC(=O)N1C[C@H]2CCN(C)[C@H]2C1 [Compound 1, (3aR,6aR)—N-(4-(1-(3-fluorobenzyl)-1H-indazol-5-ylamino)-7-methoxyquinazolin-6-yl)-1-methylhexahydropyrrolo[3,4-b]pyrrole-5(1H)-carboxamide]

IC50 (EGFR): 439 nM
Structure (SMILES): COc1cc2ncnc(Nc3ccc4c(cnn4Cc4cccc(F)c4)c3)c2cc1NC(=O)N1C[C@@H]2CCN(C)[C@@H]2C1 [Compound 2, (3aS,6aS)—N-(4-(1-(3-fluorobenzyl)-1H-indazol-5-ylamino)-7-methoxyquinazolin-6-yl)-1-methylhexahydropyrrolo[3,4-b]pyrrole-5(1H)-carboxamide]

IC50 (EGFR): 16 nM
Structure (SMILES): COc1cc2ncnc(Nc3ccc(OCc4cccc(F)c4)c(Cl)c3)c2cc1NC(=O)N1C[C@@H]2CCN(C)[C@@H]2C1 [Compound 4, (3aS,6aS)—N-(4-(3-chloro-4-(3-fluorobenzyloxy)phenylamino)-7-methoxyquinazolin-6-yl)-1-methylhexahydropyrrolo[3,4-b]pyrrole-5(1H)-carboxamide]

IC50 (EGFR): 44 nM
Structure (SMILES): COc1cc2ncnc(Nc3ccc(OCc4cccc(F)c4)c(Cl)c3)c2cc1NC(=O)N1C[C@H]2CCN(C)[C@H]2C1 [Compound 5, (3aR,6aR)—N-(4-(3-chloro-4-(3-fluorobenzyloxy)phenylamino)-7-methoxyquinazolin-6-yl)-1-methylhexahydropyrrolo[3,4-b]pyrrole-5(1H)-carboxamide]

Second part, the compound before the results:

Structure (SMILES): C#Cc1cccc(Nc2ncnc3cc(OC)c(NC(=O)N4C[C@H]5CCN(C)[C@H]5C4)cc23)c1 [Compound 3, (3aR,6aR)—N-(4-(3-ethynylphenylamino)-7-methoxyquinazolin-6-yl)-1-methyl-hexahydropyrrolo[3,4-b]pyrrole-5(1H)-carboxamide]
TGI % ([1]; 2 mpk p.o. qd x 21 days): 46.1% | TGI % ([1]; 5 mpk p.o. qd x 21 days): 66.9% | TGI % ([1]; 10 mpk p.o. qd x 21 days): 95.2% | TGI % ([2]; 0.5 mpk p.o. qd x 21 days): 59.2% | TGI % ([2]; 1 mpk p.o. qd x 21 days): 114.7% | TGI % ([2]; 2 mpk p.o. qd x 21 days): 127.8% | TGI % ([2]; 5 mpk p.o. qd x 21 days): 140.8% | IC50 (EGFR): 6 nM | TGI % ([3]; 2 mpk p.o. qd x 21 days): 21.3% | TGI % ([3]; 5 mpk p.o. qd x 21 days): 62.8% | TGI % ([3]; 10 mpk p.o. qd x 21 days): 85.3% | IC50 (hERG channels): 9300 ± 1200 nM

Structure (SMILES): CN1CC[C@H]2CN(C(=O)Nc3ccc4ncnc(Nc5ccc(OCc6cccc(F)c6)c(Cl)c5)c4c3)C[C@H]21 [Compound 6, (3aS,6aS)—N-(4-(3-chloro-4-(3-fluorobenzyloxy)phenylamino)quinazolin-6-yl)-1-methylhexahydropyrrolo[3,4-b]pyrrole-5(1H)-carboxamide]
IC50 (EGFR): 210 nM

Structure (SMILES): CN1CC[C@@H]2CN(C(=O)Nc3ccc4ncnc(Nc5ccc(OCc6cccc(F)c6)c(Cl)c5)c4c3)C[C@@H]21 [Compound 7]
IC50 (EGFR): 241 nM
